Target: T1, Bcl-2 protein (Recombinant Human Bcl-2 Protein) (Homo sapiens, UniProt P10415)
T1 construct: purchased Novus NBP2-34889
Assay: Binding evaluation of mixture library compounds to Bcl-2 using AS-MS (affinity selection mass spectrometry)
Settings: AS-MS, mixture of 1200 compounds, Bcl-2, ASMS Ratio(%)=(A−C)/B×100; for ASMS ratio (%) n = 1: replicate n = 1; for ASMS ratio (%) n = 2: replicate n = 2
Method in brief: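 Affinity selection MS: Bcl-2 20 μM + 1200-cpd mixture, […]/cpd, Tris pH 7.4 buffer w/ Tween-20, DTT; 1 h 23° C dark; P-2 spin SEC; MeCN/MeOH extraction; RP LC/MS. ASMS Ratio(%) = (A−C)/B×100.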

T1 sequence (P10415 whole entry): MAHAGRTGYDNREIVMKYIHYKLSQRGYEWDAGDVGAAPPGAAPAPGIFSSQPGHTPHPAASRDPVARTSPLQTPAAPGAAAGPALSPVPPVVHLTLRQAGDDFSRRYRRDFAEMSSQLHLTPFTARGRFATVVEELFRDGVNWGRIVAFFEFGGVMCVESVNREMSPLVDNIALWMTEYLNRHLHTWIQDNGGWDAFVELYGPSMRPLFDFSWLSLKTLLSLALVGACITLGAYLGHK

**Q.** For `CCOc1cncc(-c2ccc(CN3CCN(c4ccc(C(=O)NCC(F)(F)F)cc4)CC3)c3ccccc23)c1` [B1K066-01, 4-[4-[[4-(5-Ethoxypyridin-3-yl)naphthalen-1-yl]methyl]piperazin-1-yl]-N-(2,2,2-trifluoroethyl)benzamide], which “ASMS ratio (%) n = 1” value is on record?
**A.** Its value is 1.8%.

**Q.** And the “ASMS ratio (%) n = 2” value?
**A.** Its value is −0.7%.

**Q.** With `CCOc1cccc(-c2csc(CN3CCN(c4ccc(C(=O)NCC(F)(F)F)cc4)CC3)c2)c1` [B1K067-01, 4-[4-[[4-(3-Ethoxyphenyl)thiophen-2-yl]methyl]piperazin-1-yl]-N-(2,2,2-trifluoroethyl)benzamide] as the molecule, how does the “ASMS ratio (%) n = 1” value read?
**A.** The value was 5.1%.

**Q.** What about the “ASMS ratio (%) n = 2” value of the same molecule?
**A.** Its value is 1.8%.

**Q.** Which “ASMS ratio (%) n = 1” value does the source give for `CCOc1cncc(-c2csc(CN3CCN(c4ccc(C(=O)NCC(F)(F)F)cc4)CC3)c2)c1` [B1K068-01, 4-[4-[[4-(5-Ethoxypyridin-3-yl)thiophen-2-yl]methyl]piperazin-1-yl]-N-(2,2,2-trifluoroethyl)benzamide] here?
**A.** Its value is 2.6%.

**Q.** And the “ASMS ratio (%) n = 2” value?
**A.** Its value is −1.4%.

**Q.** With `CCOc1cccc(C#Cc2ccccc2CN2CCN(c3ccc(C(=O)NCC(F)(F)F)cc3)CC2)c1` [B1K069-01, 4-[4-[[2-[2-(3-Ethoxyphenyl)ethynyl]phenyl]methyl]piperazin-1-yl]-N-(2,2,2-trifluoroethyl)benzamide] as the molecule, how does the “ASMS ratio (%) n = 1” value read?
**A.** Its value is 3.5%.

**Q.** What about the “ASMS ratio (%) n = 2” value of the same molecule?
**A.** Its value is −1.4%.

**Q.** With `CCOc1cncc(C#Cc2ccccc2CN2CCN(c3ccc(C(=O)NCC(F)(F)F)cc3)CC2)c1` [B1K070-01, 4-[4-[[2-[2-(5-Ethoxypyridin-3-yl)ethynyl]phenyl]methyl]piperazin-1-yl]-N-(2,2,2-trifluoroethyl)benzamide] as the molecule, how does the “ASMS ratio (%) n = 1” value read?
**A.** The value was 0.0%.

**Q.** And the “ASMS ratio (%) n = 2” value?
**A.** The value was 0.0%.

**Q.** How did the “ASMS ratio (%) n = 1” value turn out when `CCOc1cccc(-c2ccccc2CN2CCN(c3ccc(C(=O)NCC(F)(F)F)nn3)CC2)c1` [B1K071-01, 6-[4-[[2-(3-Ethoxyphenyl)phenyl]methyl]piperazin-1-yl]-N-(2,2,2-trifluoroethyl)pyridazine-3-carboxamide] was run?
**A.** The value was 1.6%.

**Q.** And the “ASMS ratio (%) n = 2” value?
**A.** The value was −0.9%.

**Q.** For `CCOc1cncc(-c2ccccc2CN2CCN(c3ccc(C(=O)NCC(F)(F)F)nn3)CC2)c1` [B1K072-01, 6-[4-[[2-(5-Ethoxypyridin-3-yl)phenyl]methyl]piperazin-1-yl]-N-(2,2,2-trifluoroethyl)pyridazine-3-carboxamide], which “ASMS ratio (%) n = 1” value is on record?
**A.** Its value is −0.6%.

**Q.** And the “ASMS ratio (%) n = 2” value?
**A.** The value was 1.7%.

**Q.** Which “ASMS ratio (%) n = 1” value does the source give for `CCOc1cccc(-c2ccc(CN3CCN(c4ccc(C(=O)NCC(F)(F)F)nn4)CC3)cc2C)c1` [B1K073-01, 6-[4-[[4-(3-Ethoxyphenyl)-3-methylphenyl]methyl]piperazin-1-yl]-N-(2,2,2-trifluoroethyl)pyridazine-3-carboxamide] here?
**A.** Its value is 3.1%.

**Q.** And the “ASMS ratio (%) n = 2” value?
**A.** The value was −1.9%.

**Q.** How did the “ASMS ratio (%) n = 1” value turn out when `CCOc1cncc(-c2ccc(CN3CCN(c4ccc(C(=O)NCC(F)(F)F)nn4)CC3)cc2C)c1` [B1K074-01, 6-[4-[[4-(5-Ethoxypyridin-3-yl)-3-methylphenyl]methyl]piperazin-1-yl]-N-(2,2,2-trifluoroethyl)pyridazine-3-carboxamide] was run?
**A.** Its value is 0.0%.

**Q.** And the “ASMS ratio (%) n = 2” value?
**A.** Its value is 0.0%.

**Q.** For `CCOc1cccc(-c2ccc(CN3CCN(c4ccc(C(=O)NCC(F)(F)F)nn4)CC3)c(CC)c2)c1` [B1K075-01, 6-[4-[[4-(3-Ethoxyphenyl)-2-ethylphenyl]methyl]piperazin-1-yl]-N-(2,2,2-trifluoroethyl)pyridazine-3-carboxamide], which “ASMS ratio (%) n = 1” value is on record?
**A.** Its value is 1.4%.

**Q.** And the “ASMS ratio (%) n = 2” value?
**A.** Its value is −3.8%.

**Q.** `CCOc1cncc(-c2ccc(CN3CCN(c4ccc(C(=O)NCC(F)(F)F)nn4)CC3)c(CC)c2)c1` [B1K076-01, 6-[4-[[4-(5-Ethoxypyridin-3-yl)-2-ethylphenyl]methyl]piperazin-1-yl]-N-(2,2,2-trifluoroethyl)pyridazine-3-carboxamide] was tested. Which “ASMS ratio (%) n = 2” value did it give?
**A.** The value was 0.0%.

**Q.** `CCOc1cccc(-c2ccc(CN3CCN(c4ccc(C(=O)NCC(F)(F)F)nn4)CC3)cc2F)c1` [B1K077-01, 6-[4-[[4-(3-Ethoxyphenyl)-3-fluorophenyl]methyl]piperazin-1-yl]-N-(2,2,2-trifluoroethyl)pyridazine-3-carboxamide] was tested. Which “ASMS ratio (%) n = 1” value did it give?
**A.** The value was 2.4%.

**Q.** And the “ASMS ratio (%) n = 2” value?
**A.** Its value is −0.2%.

**Q.** Which “ASMS ratio (%) n = 1” value does the source give for `CCOc1cncc(-c2ccc(CN3CCN(c4ccc(C(=O)NCC(F)(F)F)nn4)CC3)cc2F)c1` [B1K078-01, 6-[4-[[4-(5-Ethoxypyridin-3-yl)-3-fluorophenyl]methyl]piperazin-1-yl]-N-(2,2,2-trifluoroethyl)pyridazine-3-carboxamide] here?
**A.** The value was 0.8%.

**Q.** What about the “ASMS ratio (%) n = 2” value of the same molecule?
**A.** Its value is −0.2%.

**Q.** Which results are given for `CCOc1cccc(-c2ccc(CN3CCN(c4ccc(C(=O)NCC(F)(F)F)nn4)CC3)c(OC)c2)c1` [B1K079-01, 6-[4-[[4-(3-Ethoxyphenyl)-2-methoxyphenyl]methyl]piperazin-1-yl]-N-(2,2,2-trifluoroethyl)pyridazine-3-carboxamide]?
**A.** ASMS ratio (%) n = 1: 2.2%; ASMS ratio (%) n = 2: −1.3%

**Q.** Which “ASMS ratio (%) n = 1” value does the source give for `CCOc1cncc(-c2ccc(CN3CCN(c4ccc(C(=O)NCC(F)(F)F)nn4)CC3)c(OC)c2)c1` [B1K080-01, 6-[4-[[4-(5-Ethoxypyridin-3-yl)-2-methoxyphenyl]methyl]piperazin-1-yl]-N-(2,2,2-trifluoroethyl)pyridazine-3-carboxamide] here?
**A.** Its value is 0.0%.

**Q.** What about the “ASMS ratio (%) n = 2” value of the same molecule?
**A.** The value was 0.0%.

**Q.** What does the source list for `CCOc1cccc(-c2cc(CN3CCN(c4ccc(C(=O)NCC(F)(F)F)nn4)CC3)cc(OCC)c2)c1` [B1K081-01, 6-[4-[[3-Ethoxy-5-(3-ethoxyphenyl)phenyl]methyl]piperazin-1-yl]-N-(2,2,2-trifluoroethyl)pyridazine-3-carboxamide]?
**A.** ASMS ratio (%) n = 1: 2.3%; ASMS ratio (%) n = 2: −0.4%

**Q.** With `CCOc1cncc(-c2cc(CN3CCN(c4ccc(C(=O)NCC(F)(F)F)nn4)CC3)cc(OCC)c2)c1` [B1K082-01, 6-[4-[[3-Ethoxy-5-(5-ethoxypyridin-3-yl)phenyl]methyl]piperazin-1-yl]-N-(2,2,2-trifluoroethyl)pyridazine-3-carboxamide] as the molecule, how does the “ASMS ratio (%) n = 1” value read?
**A.** The value was 0.0%.

**Q.** And the “ASMS ratio (%) n = 2” value?
**A.** Its value is 0.0%.

**Q.** What does the source list for `CCOc1cccc(-c2cc(CN3CCN(c4ccc(C(=O)NCC(F)(F)F)nn4)CC3)cc(OC(C)C)c2)c1` [B1K083-01]?
**A.** ASMS ratio (%) n = 1: 0.0%; ASMS ratio (%) n = 2: 0.0%

**Q.** How did the “ASMS ratio (%) n = 1” value turn out when `CCOc1cncc(-c2cc(CN3CCN(c4ccc(C(=O)NCC(F)(F)F)nn4)CC3)cc(OC(C)C)c2)c1` [B1K084-01, 6-[4-[[3-(5-Ethoxypyridin-3-yl)-5-propan-2-yloxyphenyl]methyl]piperazin-1-yl]-N-(2,2,2-trifluoroethyl)pyridazine-3-carboxamide] was run?
**A.** Its value is 0.0%.

**Q.** What about the “ASMS ratio (%) n = 2” value of the same molecule?
**A.** The value was 0.0%.

**Q.** `CCOc1cccc(-c2cc(OC)c(CN3CCN(c4ccc(C(=O)NCC(F)(F)F)nn4)CC3)c(OC)c2)c1` [B1K085-01] was tested. Which “ASMS ratio (%) n = 1” value did it give?
**A.** Its value is 4.2%.

**Q.** And the “ASMS ratio (%) n = 2” value?
**A.** The value was −0.2%.

**Q.** For `CCOc1cncc(-c2cc(OC)c(CN3CCN(c4ccc(C(=O)NCC(F)(F)F)nn4)CC3)c(OC)c2)c1` [B1K086-01, 6-[4-[[4-(5-Ethoxypyridin-3-yl)-2,6-dimethoxyphenyl]methyl]piperazin-1-yl]-N-(2,2,2-trifluoroethyl)pyridazine-3-carboxamide], which “ASMS ratio (%) n = 2” value is on record?
**A.** Its value is 0.0%.

**Q.** How did the “ASMS ratio (%) n = 1” value turn out when `CCOc1cccc(-c2cc(CN3CCN(c4ccc(C(=O)NCC(F)(F)F)nn4)CC3)cc(C(F)(F)F)c2)c1` [B1K087-01] was run?
**A.** Its value is 1.8%.

**Q.** And the “ASMS ratio (%) n = 2” value?
**A.** Its value is −0.1%.

**Q.** What does the source list for `CCOc1cncc(-c2cc(CN3CCN(c4ccc(C(=O)NCC(F)(F)F)nn4)CC3)cc(C(F)(F)F)c2)c1` [B1K088-01, 6-[4-[[3-(5-Ethoxypyridin-3-yl)-5-(trifluoromethyl)phenyl]methyl]piperazin-1-yl]-N-(2,2,2-trifluoroethyl)pyridazine-3-carboxamide]?
**A.** ASMS ratio (%) n = 1: 2.2%; ASMS ratio (%) n = 2: −0.2%

**Q.** For `CCOc1cccc(-c2cc(CN3CCN(c4ccc(C(=O)NCC(F)(F)F)nn4)CC3)cc(OC(F)(F)F)c2)c1` [B1K089-01, 6-[4-[[3-(3-Ethoxyphenyl)-5-(trifluoromethoxy)phenyl]methyl]piperazin-1-yl]-N-(2,2,2-trifluoroethyl)pyridazine-3-carboxamide], which “ASMS ratio (%) n = 1” value is on record?
**A.** The value was 2.0%.

**Q.** And the “ASMS ratio (%) n = 2” value?
**A.** The value was 1.0%.

**Q.** Which results are given for `CCOc1cncc(-c2cc(CN3CCN(c4ccc(C(=O)NCC(F)(F)F)nn4)CC3)cc(OC(F)(F)F)c2)c1` [B1K090-01, 6-[4-[[3-(5-Ethoxypyridin-3-yl)-5-(trifluoromethoxy)phenyl]methyl]piperazin-1-yl]-N-(2,2,2-trifluoroethyl)pyridazine-3-carboxamide]?
**A.** ASMS ratio (%) n = 1: −0.6%; ASMS ratio (%) n = 2: −1.9%

**Q.** `CCOc1cccc(-c2ccc(CN3CCN(c4ccc(C(=O)NCC(F)(F)F)nn4)CC3)c3ccccc23)c1` [B1K091-01, 6-[4-[[4-(3-Ethoxyphenyl)naphthalen-1-yl]methyl]piperazin-1-yl]-N-(2,2,2-trifluoroethyl)pyridazine-3-carboxamide] was tested. Which “ASMS ratio (%) n = 1” value did it give?
**A.** The value was 3.6%.

**Q.** What about the “ASMS ratio (%) n = 2” value of the same molecule?
**A.** Its value is −4.2%.

**Q.** With `CCOc1cncc(-c2ccc(CN3CCN(c4ccc(C(=O)NCC(F)(F)F)nn4)CC3)c3ccccc23)c1` [B1K092-01, 6-[4-[[4-(5-Ethoxypyridin-3-yl)naphthalen-1-yl]methyl]piperazin-1-yl]-N-(2,2,2-trifluoroethyl)pyridazine-3-carboxamide] as the molecule, how does the “ASMS ratio (%) n = 1” value read?
**A.** The value was 4.1%.

**Q.** And the “ASMS ratio (%) n = 2” value?
**A.** The value was −0.7%.

**Q.** For `CCOc1cccc(-c2csc(CN3CCN(c4ccc(C(=O)NCC(F)(F)F)nn4)CC3)c2)c1` [B1K093-01, 6-[4-[[4-(3-Ethoxyphenyl)thiophen-2-yl]methyl]piperazin-1-yl]-N-(2,2,2-trifluoroethyl)pyridazine-3-carboxamide], which “ASMS ratio (%) n = 1” value is on record?
**A.** Its value is 2.7%.

**Q.** What about the “ASMS ratio (%) n = 2” value of the same molecule?
**A.** Its value is −0.4%.

**Q.** With `CCOc1cncc(-c2csc(CN3CCN(c4ccc(C(=O)NCC(F)(F)F)nn4)CC3)c2)c1` [B1K094-01, 6-[4-[[4-(5-Ethoxypyridin-3-yl)thiophen-2-yl]methyl]piperazin-1-yl]-N-(2,2,2-trifluoroethyl)pyridazine-3-carboxamide] as the molecule, how does the “ASMS ratio (%) n = 1” value read?
**A.** The value was 1.4%.

**Q.** What about the “ASMS ratio (%) n = 2” value of the same molecule?
**A.** The value was −0.1%.

— patent publication US20240132431A1, “METHOD FOR ALKYLATING ACIDIC FUNCTIONAL GROUP” (Chugai Seiyaku Kabushiki Kaisha, priority 2021, published 2024)
